Publication PMC9856672, “SGC-CAMKK2-1: A Chemical Probe for CAMKK2” (Cells, 2023)

Assays:
[1] = target: T1, RSK2(Kin.Dom.2-C-terminal) (Homo sapiens, UniProt P51812); experiment: KINOMEscan at 1 μM, RSK2(Kin.Dom.2-C-terminal); format: binding; settings: 1000 nM, read-out: Percent Control
T1 construct: RSK2(Kin.Dom.2-C-terminal); purchased Eurofins DiscoverX KINOMEscan
Text: (§1) Supplement cells-12-00287-s001.zip/File S2. KinomeScan data for the CAMKK2 probe and negative control.xlsx, sheet "SGC-CAMKK2-1N" | column: Percent Control

[2] = target: T2, HIPK3 (Homo sapiens, UniProt Q9H422); experiment: KINOMEscan at 1 μM, HIPK3; format: binding; settings: 1000 nM, read-out: Percent Control
T2 construct: purchased Eurofins DiscoverX KINOMEscan
T2 sequence (Q9H422 whole entry): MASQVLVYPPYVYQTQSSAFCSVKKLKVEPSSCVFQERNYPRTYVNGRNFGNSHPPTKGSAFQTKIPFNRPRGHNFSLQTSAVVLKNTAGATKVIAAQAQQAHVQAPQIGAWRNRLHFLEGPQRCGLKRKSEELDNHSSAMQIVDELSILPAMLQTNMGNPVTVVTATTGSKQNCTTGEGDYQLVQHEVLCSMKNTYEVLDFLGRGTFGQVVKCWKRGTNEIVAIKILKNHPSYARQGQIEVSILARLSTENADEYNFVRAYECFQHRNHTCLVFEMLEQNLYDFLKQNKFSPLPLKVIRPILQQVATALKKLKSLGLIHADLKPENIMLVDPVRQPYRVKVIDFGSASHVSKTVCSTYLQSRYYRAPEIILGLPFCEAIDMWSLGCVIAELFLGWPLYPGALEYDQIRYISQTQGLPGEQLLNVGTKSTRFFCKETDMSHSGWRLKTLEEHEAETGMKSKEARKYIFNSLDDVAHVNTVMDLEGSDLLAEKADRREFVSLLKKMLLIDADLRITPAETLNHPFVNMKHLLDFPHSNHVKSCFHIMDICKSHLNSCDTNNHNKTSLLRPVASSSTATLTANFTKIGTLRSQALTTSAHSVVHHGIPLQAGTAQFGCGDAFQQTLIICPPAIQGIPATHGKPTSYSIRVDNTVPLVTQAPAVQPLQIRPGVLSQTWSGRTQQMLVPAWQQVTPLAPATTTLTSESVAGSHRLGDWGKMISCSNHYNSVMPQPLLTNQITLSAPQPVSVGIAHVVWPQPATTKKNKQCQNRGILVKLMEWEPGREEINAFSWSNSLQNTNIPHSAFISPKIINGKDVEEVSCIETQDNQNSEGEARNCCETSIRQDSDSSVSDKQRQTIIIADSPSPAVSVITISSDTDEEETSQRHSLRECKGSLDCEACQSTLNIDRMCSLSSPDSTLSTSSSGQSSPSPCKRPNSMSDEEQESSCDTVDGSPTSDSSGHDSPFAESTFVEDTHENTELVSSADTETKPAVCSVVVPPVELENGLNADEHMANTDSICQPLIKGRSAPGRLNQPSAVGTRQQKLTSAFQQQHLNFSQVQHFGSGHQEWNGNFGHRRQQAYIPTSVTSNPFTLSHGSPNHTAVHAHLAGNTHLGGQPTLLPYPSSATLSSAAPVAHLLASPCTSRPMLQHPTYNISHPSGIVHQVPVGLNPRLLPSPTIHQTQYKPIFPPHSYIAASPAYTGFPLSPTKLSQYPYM
Text: as §1

[3] = target: T3, PIK3CG (Homo sapiens, UniProt P48736); experiment: KINOMEscan at 1 μM, PIK3CG; format: binding; settings: 1000 nM, read-out: Percent Control
T3 construct: purchased Eurofins DiscoverX KINOMEscan
Text: as §1

[4] = target: T4, SRPK2 (Homo sapiens, UniProt P78362); experiment: KINOMEscan at 1 μM, SRPK2; format: binding; settings: 1000 nM, read-out: Percent Control
T4 construct: purchased Eurofins DiscoverX KINOMEscan
Text: as §1

[5] = target: T5, PFTK1 (Homo sapiens, UniProt O94921); experiment: KINOMEscan binding assay at 1 μM, PFTK1; settings: Compound Concentration 1000 nM; read-out: Percent Control
T5 construct: purchased Eurofins DiscoverX KINOMEscan
Text: as §1

[6] = target: T6, BIKE (Homo sapiens, UniProt Q9NSY1); experiment: KINOMEscan at 1 μM, BIKE; format: binding; settings: 1000 nM, read-out: Percent Control
T6 construct: purchased Eurofins DiscoverX KINOMEscan
Text: as §1

[7] = target: T7, BLK (Homo sapiens, UniProt P51451); experiment: KINOMEscan at 1 μM, BLK; format: binding; settings: 1000 nM, read-out: Percent Control
T7 construct: purchased Eurofins DiscoverX KINOMEscan
Text: as §1

[8] = target: T8, PIK3CA(E542K) (Homo sapiens, UniProt P42336, E542K); experiment: KINOMEscan at 1 μM, PIK3CA(E542K); format: binding; settings: 1000 nM, read-out: Percent Control
T8 construct: purchased Eurofins DiscoverX KINOMEscan
Text: as §1

[9] = target: T9, CSNK2A2 (Homo sapiens, UniProt P19784); experiment: KINOMEscan at 1 μM, CSNK2A2; format: binding; settings: 1000 nM, read-out: Percent Control
T9 construct: purchased Eurofins DiscoverX KINOMEscan
Text: as §1

[10] = target: T10, GRK7 (Homo sapiens, UniProt Q8WTQ7); experiment: KINOMEscan at 1 μM, GRK7; format: binding; settings: 1000 nM, read-out: Percent Control
T10 construct: purchased Eurofins DiscoverX KINOMEscan
Text: as §1

[11] = target: T11, EGFR(G719S) (Homo sapiens, UniProt P00533, G719S); experiment: KINOMEscan binding assay at 1 μM, EGFR(G719S); settings: Compound Concentration 1000 nM; read-out: Percent Control
T11 construct: purchased Eurofins DiscoverX KINOMEscan
T11 sequence (P00533 25-1210 G719S): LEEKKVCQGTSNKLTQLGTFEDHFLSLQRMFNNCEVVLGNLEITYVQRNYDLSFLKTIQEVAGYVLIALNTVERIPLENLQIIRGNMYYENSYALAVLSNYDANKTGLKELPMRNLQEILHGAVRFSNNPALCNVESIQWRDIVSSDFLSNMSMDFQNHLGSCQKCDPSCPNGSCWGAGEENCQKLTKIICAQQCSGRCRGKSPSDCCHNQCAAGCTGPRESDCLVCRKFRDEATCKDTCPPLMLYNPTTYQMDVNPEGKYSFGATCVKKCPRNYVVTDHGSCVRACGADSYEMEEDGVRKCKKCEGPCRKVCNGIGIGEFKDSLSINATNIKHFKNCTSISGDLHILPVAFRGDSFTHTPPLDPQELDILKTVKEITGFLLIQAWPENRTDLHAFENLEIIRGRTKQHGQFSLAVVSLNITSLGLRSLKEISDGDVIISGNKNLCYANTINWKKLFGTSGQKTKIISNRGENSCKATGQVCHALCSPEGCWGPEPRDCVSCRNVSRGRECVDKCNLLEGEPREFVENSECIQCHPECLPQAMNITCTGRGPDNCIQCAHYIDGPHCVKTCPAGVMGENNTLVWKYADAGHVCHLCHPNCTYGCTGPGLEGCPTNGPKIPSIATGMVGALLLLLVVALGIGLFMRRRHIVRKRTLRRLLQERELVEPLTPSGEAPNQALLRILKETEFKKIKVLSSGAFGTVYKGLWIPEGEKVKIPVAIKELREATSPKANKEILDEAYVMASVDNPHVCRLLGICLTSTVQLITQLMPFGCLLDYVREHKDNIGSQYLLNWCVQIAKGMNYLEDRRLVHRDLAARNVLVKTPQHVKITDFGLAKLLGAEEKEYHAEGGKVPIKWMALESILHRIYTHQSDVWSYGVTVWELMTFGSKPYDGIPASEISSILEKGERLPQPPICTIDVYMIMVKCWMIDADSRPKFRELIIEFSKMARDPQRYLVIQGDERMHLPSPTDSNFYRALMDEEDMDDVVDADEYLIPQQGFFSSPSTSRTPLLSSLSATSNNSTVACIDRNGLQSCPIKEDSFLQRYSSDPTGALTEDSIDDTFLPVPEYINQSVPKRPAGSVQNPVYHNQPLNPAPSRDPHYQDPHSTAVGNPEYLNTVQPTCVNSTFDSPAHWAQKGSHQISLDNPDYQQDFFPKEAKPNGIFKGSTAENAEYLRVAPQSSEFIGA
Text: as §1

[12] = target: T12, AKT2 (Homo sapiens, UniProt P31751); experiment: KINOMEscan at 1 μM, AKT2; format: binding; settings: 1000 nM, read-out: Percent Control
T12 construct: purchased Eurofins DiscoverX KINOMEscan
Text: as §1

[13] = target: T13, PIK3CA(I800L) (Homo sapiens, UniProt P42336, I800L); experiment: KINOMEscan at 1 μM, PIK3CA(I800L); format: binding; settings: 1000 nM, read-out: Percent Control
T13 construct: purchased Eurofins DiscoverX KINOMEscan
Text: as §1

[14] = target: T14, DCAMKL1 (Homo sapiens, UniProt O15075); experiment: KINOMEscan at 1 μM, DCAMKL1; format: binding; settings: 1000 nM, read-out: Percent Control
T14 construct: purchased Eurofins DiscoverX KINOMEscan
T14 sequence (O15075 whole entry): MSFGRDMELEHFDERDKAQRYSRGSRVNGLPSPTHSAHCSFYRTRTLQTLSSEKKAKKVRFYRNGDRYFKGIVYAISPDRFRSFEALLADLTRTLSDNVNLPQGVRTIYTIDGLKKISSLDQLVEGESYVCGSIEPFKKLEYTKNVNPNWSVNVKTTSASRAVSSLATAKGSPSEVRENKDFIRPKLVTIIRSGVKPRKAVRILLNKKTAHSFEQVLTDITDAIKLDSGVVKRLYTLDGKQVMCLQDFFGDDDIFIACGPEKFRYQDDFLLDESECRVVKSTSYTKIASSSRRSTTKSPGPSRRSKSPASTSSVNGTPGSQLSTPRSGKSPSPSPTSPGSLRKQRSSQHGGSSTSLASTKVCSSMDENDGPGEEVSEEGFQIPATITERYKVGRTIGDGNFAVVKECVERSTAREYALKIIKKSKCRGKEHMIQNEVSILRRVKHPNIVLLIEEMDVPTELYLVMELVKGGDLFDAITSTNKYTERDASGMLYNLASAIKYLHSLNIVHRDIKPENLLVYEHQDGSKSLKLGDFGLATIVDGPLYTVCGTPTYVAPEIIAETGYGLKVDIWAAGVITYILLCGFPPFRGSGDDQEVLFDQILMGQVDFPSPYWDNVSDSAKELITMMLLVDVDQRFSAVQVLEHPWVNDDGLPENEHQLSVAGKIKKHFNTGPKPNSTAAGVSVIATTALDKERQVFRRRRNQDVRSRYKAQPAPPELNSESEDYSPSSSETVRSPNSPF
Text: as §1

[15] = target: T15, NEK4 (Homo sapiens, UniProt P51957); experiment: KINOMEscan at 1 μM, NEK4; format: binding; settings: 1000 nM, read-out: Percent Control
T15 construct: purchased Eurofins DiscoverX KINOMEscan
T15 sequence (P51957 whole entry): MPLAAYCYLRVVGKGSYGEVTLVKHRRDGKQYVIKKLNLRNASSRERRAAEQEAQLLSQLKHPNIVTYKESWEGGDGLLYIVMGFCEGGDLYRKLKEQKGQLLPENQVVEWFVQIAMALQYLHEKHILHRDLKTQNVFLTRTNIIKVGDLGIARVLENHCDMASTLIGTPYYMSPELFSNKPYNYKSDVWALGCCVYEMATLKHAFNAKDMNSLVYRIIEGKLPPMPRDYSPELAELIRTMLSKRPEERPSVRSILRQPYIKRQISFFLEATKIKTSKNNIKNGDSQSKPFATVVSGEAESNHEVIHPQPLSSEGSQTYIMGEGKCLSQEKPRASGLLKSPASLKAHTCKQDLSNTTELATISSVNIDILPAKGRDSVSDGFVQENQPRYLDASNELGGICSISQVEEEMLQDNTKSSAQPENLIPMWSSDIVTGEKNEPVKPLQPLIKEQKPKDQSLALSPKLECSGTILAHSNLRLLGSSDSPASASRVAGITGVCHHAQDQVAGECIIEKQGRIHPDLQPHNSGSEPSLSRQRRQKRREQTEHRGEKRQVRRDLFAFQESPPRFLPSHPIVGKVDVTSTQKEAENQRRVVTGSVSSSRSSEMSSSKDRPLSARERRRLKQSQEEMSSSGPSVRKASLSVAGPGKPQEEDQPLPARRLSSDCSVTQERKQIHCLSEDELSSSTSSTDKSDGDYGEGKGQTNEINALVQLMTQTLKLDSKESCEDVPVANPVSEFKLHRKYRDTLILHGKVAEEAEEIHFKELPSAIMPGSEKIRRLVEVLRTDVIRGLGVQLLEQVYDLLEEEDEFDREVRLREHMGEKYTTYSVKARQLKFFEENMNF
Text: as §1

[16] = target: T16, EPHA3 (Homo sapiens, UniProt P29320); experiment: KINOMEscan at 1 μM, EPHA3; format: binding; settings: 1000 nM, read-out: Percent Control
T16 construct: purchased Eurofins DiscoverX KINOMEscan
Text: as §1

[17] = target: T17, TAOK2 (Homo sapiens, UniProt Q9UL54); experiment: KINOMEscan 1 μM, TAOK2; format: binding; settings: 1000 nM; Entrez TAOK2; read-out: Percent Control
T17 construct: purchased Eurofins DiscoverX KINOMEscan
Text: (§2) Supplement cells-12-00287-s001.zip/File S2. KinomeScan data for the CAMKK2 probe and negative control.xlsx, sheet "SGC-CAMKK2-1" | column: Percent Control

[18] = target: T18, FLT3(D835V) (Homo sapiens, UniProt P36888, D835V); experiment: KINOMEscan 1 μM, FLT3(D835V); format: binding; settings: 1000 nM; Entrez FLT3; read-out: Percent Control
T18 construct: purchased Eurofins DiscoverX KINOMEscan
Text: as §2

[19] = target: T19, TYK2(JH1domain-catalytic) (Homo sapiens, UniProt P29597); experiment: DiscoverX KINOMEscan binding assay at 1 μM, TYK2(JH1domain-catalytic); settings: Compound Concentration 1000 nM, read-out: Percent Control
T19 construct: TYK2(JH1domain-catalytic); purchased Eurofins DiscoverX KINOMEscan
Text: as §2

[20] = target: T20, MAP3K15 (Homo sapiens, UniProt Q6ZN16); experiment: KINOMEscan 1 μM, MAP3K15; format: binding; settings: 1000 nM; Entrez MAP3K15; read-out: Percent Control
T20 construct: purchased Eurofins DiscoverX KINOMEscan
Text: as §2

[21] = target: T21, ERK4 (Homo sapiens, UniProt P31152); experiment: KINOMEscan 1 μM, ERK4; format: binding; settings: 1000 nM; Entrez MAPK4; read-out: Percent Control
T21 construct: purchased Eurofins DiscoverX KINOMEscan
Text: as §2

[22] = target: T22, SNARK (Homo sapiens, UniProt Q9H093); experiment: DiscoverX KINOMEscan binding assay at 1 μM, SNARK; settings: SNARK (NUAK2); Compound Concentration 1000 nM; read-out: Percent Control
T22 construct: purchased Eurofins DiscoverX KINOMEscan
Text: as §2

[23] = target: T23, PIK3CA (Homo sapiens, UniProt P42336); experiment: DiscoverX KINOMEscan binding assay at 1 μM, PIK3CA; settings: Compound Concentration 1000 nM, read-out: Percent Control
T23 construct: purchased Eurofins DiscoverX KINOMEscan
Text: as §2

[24] = target: T24, PIM3 (Homo sapiens, UniProt Q86V86); experiment: KINOMEscan 1 μM, PIM3; format: binding; settings: 1000 nM; Entrez PIM3; read-out: Percent Control
T24 construct: purchased Eurofins DiscoverX KINOMEscan
Text: as §2

[25] = target: T25, MLK3 (Homo sapiens, UniProt Q16584); experiment: KINOMEscan 1 μM, MLK3; format: binding; settings: 1000 nM; Entrez MAP3K11; read-out: Percent Control
T25 construct: purchased Eurofins DiscoverX KINOMEscan
Text: as §2

[26] = target: T26, MET(Y1235D) (Homo sapiens, UniProt P08581, Y1235D); experiment: KINOMEscan 1 μM, MET(Y1235D); format: binding; settings: 1000 nM; Entrez MET; read-out: Percent Control
T26 construct: purchased Eurofins DiscoverX KINOMEscan
Text: as §2

[27] = target: T27, YANK2 (Homo sapiens, UniProt Q9NY57); experiment: DiscoverX KINOMEscan binding assay at 1 μM, YANK2; settings: YANK2 (STK32B); Compound Concentration 1000 nM; read-out: Percent Control
T27 construct: purchased Eurofins DiscoverX KINOMEscan
Text: as §2

[28] = target: T28, ITK (Homo sapiens, UniProt Q08881); experiment: KINOMEscan 1 μM, ITK; format: binding; settings: 1000 nM; Entrez ITK; read-out: Percent Control
T28 construct: purchased Eurofins DiscoverX KINOMEscan
T28 sequence (Q08881 whole entry): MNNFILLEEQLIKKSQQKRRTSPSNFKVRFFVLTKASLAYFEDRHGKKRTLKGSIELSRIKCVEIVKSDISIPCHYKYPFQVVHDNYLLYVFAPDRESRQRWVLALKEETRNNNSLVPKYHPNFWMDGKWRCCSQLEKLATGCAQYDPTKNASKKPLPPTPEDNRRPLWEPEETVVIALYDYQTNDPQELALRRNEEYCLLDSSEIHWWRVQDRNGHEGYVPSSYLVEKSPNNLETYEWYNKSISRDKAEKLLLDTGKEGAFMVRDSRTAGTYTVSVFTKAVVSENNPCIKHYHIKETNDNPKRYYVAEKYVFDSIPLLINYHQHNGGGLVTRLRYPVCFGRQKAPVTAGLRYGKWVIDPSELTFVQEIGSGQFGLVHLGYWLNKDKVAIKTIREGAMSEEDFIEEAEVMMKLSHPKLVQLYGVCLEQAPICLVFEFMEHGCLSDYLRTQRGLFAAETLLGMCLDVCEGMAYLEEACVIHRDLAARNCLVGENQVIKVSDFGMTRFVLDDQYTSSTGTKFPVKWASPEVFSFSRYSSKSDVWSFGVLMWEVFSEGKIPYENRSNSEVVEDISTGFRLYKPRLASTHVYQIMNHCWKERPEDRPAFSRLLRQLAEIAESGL
Text: as §2

[29] = target: T29, RIOK2 (Homo sapiens, UniProt Q9BVS4); experiment: DiscoverX KINOMEscan binding assay at 1 μM, RIOK2; settings: Compound Concentration 1000 nM, read-out: Percent Control
T29 construct: purchased Eurofins DiscoverX KINOMEscan
Text: as §2

[30] = tested on: FLT3(ITD,F691L); experiment: KINOMEscan 1 μM, FLT3(ITD,F691L); format: binding, human; settings: 1000 nM; Entrez FLT3
Text: as §2

[31] = target: T30, HIPK4 (Homo sapiens, UniProt Q8NE63); experiment: KINOMEscan 1 μM, HIPK4; format: binding; settings: 1000 nM; Entrez HIPK4; read-out: Percent Control
T30 construct: purchased Eurofins DiscoverX KINOMEscan
Text: as §2

[32] = target: T31, TIE2 (Homo sapiens, UniProt Q02763); experiment: KINOMEscan 1 μM, TIE2; format: binding; settings: 1000 nM; Entrez TEK; read-out: Percent Control
T31 construct: purchased Eurofins DiscoverX KINOMEscan
Text: as §2

[33] = target: T32, HIPK1 (Homo sapiens, UniProt Q86Z02); experiment: KINOMEscan 1 μM, HIPK1; format: binding; settings: 1000 nM; Entrez HIPK1; read-out: Percent Control
T32 construct: purchased Eurofins DiscoverX KINOMEscan
Text: as §2

SMILES: O=C(O)c1ccc(-c2coc3ncc(-c4ccccc4)cc23)cc1Cl [SGC-CAMKK2-1N (UNC-YL-83)]
- remaining binding at 1 µM [1]: 70%
- remaining binding at 1 µM [2]: 40%
- remaining binding at 1 µM [3]: 66%
- remaining binding at 1 µM [4]: 76%
- remaining binding at 1 µM [5]: 100%
- remaining binding at 1 µM [6]: 94%
- remaining binding at 1 µM [7]: 87%
- remaining binding at 1 µM [8]: 81%
- remaining binding at 1 µM [9]: 98%
- remaining binding at 1 µM [10]: 50%
- remaining binding at 1 µM [11]: 100%
- remaining binding at 1 µM [12]: 85%
- remaining binding at 1 µM [13]: 87%
- remaining binding at 1 µM [14]: 100%
- remaining binding at 1 µM [15]: 66%
- remaining binding at 1 µM [16]: 92%

SMILES: Cc1cccc(-c2cnc3occ(-c4ccc(C(=O)O)c(C5CCCC5)c4)c3c2)c1 [SGC-CAMKK2-1 (YL-36)]
- remaining binding at 1 µM [17]: 90%
- remaining binding at 1 µM [18]: 100%
- remaining binding at 1 µM [19]: 100%
- remaining binding at 1 µM [20]: 84%
- remaining binding at 1 µM [21]: 100%
- remaining binding at 1 µM [22]: 100%
- remaining binding at 1 µM [23]: 100%
- remaining binding at 1 µM [24]: 77%
- remaining binding at 1 µM [25]: 89%
- remaining binding at 1 µM [26]: 98%
- remaining binding at 1 µM [27]: 100%
- remaining binding at 1 µM [28]: 100%
- remaining binding at 1 µM [29]: 100%
- Percent Control [30]: 100%
- remaining binding at 1 µM [31]: 100%
- remaining binding at 1 µM [32]: 97%
- remaining binding at 1 µM [33]: 90%
